Laboratory results: US6911542B2, “Pyrazino[1′,2′:1,6]pyrido[3,4b]indole derivatives” (Lilly Icos LLC., priority 2000, dated 2005)

What was measured:
[1] = molecular target: T1, PDE5 obtained from bovine aorta (Bos taurus, UniProt Q28156); assay: cGMP-PDE inhibition assay using PDE5 obtained from bovine aorta; assay type: biochemical; settings: read-out: PDE5 IC50 (Bov. aorta)
T1 construct: from tissue; host or cells: bovine aorta
Procedure: (§1) cGMP-PDE activity of compounds of the present invention was measured using a one-step assay adapted from Wells et al., Biochim. Biophys. Acta, 384, 430 (1975). The reaction medium contained 50 mM Tris-HCl, pH 7.5, 5 mM magnesium acetate, 250 μg/ml 5′-Nucleotidase, 1 mM EGTA, and 0.15 μM 8-[H^3]-cGMP. Unless otherwise indicated, the enzyme used was a human recombinant PDE5 (ICOS Corp., Bothell, Wash.).
(§2) Compounds of the invention were dissolved in DMSO finally present at 2% in the assay.

human recombinant PDE5 = molecular target: T2, human recombinant PDE5 (Homo sapiens, UniProt O76074); assay: cGMP-PDE one-step inhibition assay, human recombinant PDE5; assay type: biochemical; settings: 0.15 μM 8-[H3]-cGMP, 30 min incubation
T2 construct: host or cells: Saccharomyces cerevisiae, protease-deficient strain BJ2-54 (ATCC 74465)
Procedure: The compounds of structural formula (I) were tested for an ability to inhibit PDE5. The ability of a compound to inhibit PDE5 activity is related to the IC50 value for the compound, i.e., the concentration of inhibitor required for 50% inhibition of enzyme activity. The IC50 value for compounds of structural formula (I) were determined using recombinant human PDE5.
The production of recombinant human PDEs and the IC50 determinations can be accomplished by well-known methods in the art. Exemplary methods are described as follows:
Recombinant production of human PDE1B, PDE2, PDE4A, PDE4B, PDE4C, PDE4D, PDE5, and PDE7 was carried out similarly to that described in Example 7 of U.S. Pat. No. 5,702,936, incorporated herein by reference, except that the yeast transformation vector employed, which is derived from the basic ADH2 plasmid described in Price et al., Methods in Enzymology, 185, pp. 308-318 (1990), incorporated yeast ADH2 promoter and terminator sequences and the Saccharomyces cerevisiae host was the protease-deficient strain BJ2-54 deposited on Aug. 31, 1998 with the American Type Culture Collection, Manassas, Va., under accession number ATCC 74465. Transformed host cells were grown in 2×SC-leu medium, pH 6.2, with trace metals, and vitamins. After 24 hours, YEP medium-containing glycerol was added to a final concentration of 2×YET/3% glycerol. Approximately 24 hr later, cells were harvested, washed, and stored at −70° C. […]
Cell pellets (29 g) were thawed on ice with an equal volume of Lysis Buffer (25 mM Tris HCl, pH 8, 5 mM MgCl2, 0.25 mM DTT, 1 mM benzamidine, and 10 μM ZnSO4). Cells were lysed in a Microfluidizer® (Microfluidics Corp.) using nitrogen at 20,000 psi. The lysate was centrifuged and filtered through 0.45 μm disposable filters. The filtrate was applied to a 150 mL column of Q SEPHAROSE® Fast-Flow (Pharmacia). The column was washed with 1.5 volumes of Buffer A (20 mM Bis-Tris Propane, pH 6.8, 1 mM MgCl2, 0.25 mM DTT, 10 μM ZnSO4) and eluted with a step gradient of 125 mM NaCl in Buffer A followed by a linear gradient of 125-1000 mM NaCl in Buffer A. Active fractions from the linear gradient were applied to a 180 mL hydroxyapatite column in Buffer B (20 mM Bis-Tris Propane (pH 6.8), 1 mM MgCl2, 0.25 mM DTT, 10 μM ZnSO4, and 250 mM KCl). After loading, the column was washed with 2 volumes of Buffer B and eluted with a linear gradient of 0-125 mM potassium phosphate in Buffer B. Active fractions were pooled, precipitated with 60% ammonium sulfate, and resuspended in Buffer C (20 mM Bis-Tris Propane, pH 6.8, 125 mM NaCl, 0.5 mM DTT, and 10 μM ZnSO4). The pool was applied to a 140 mL column of […]® S-300 HR and eluted with Buffer C. Active fractions were diluted to 50% glycerol and stored at −20° C.
as §1, §2

| SMILES | IC50 [1] [nM] | melting point | IC50 (human recombinant PDE5) [nM] |
| --- | --- | --- | --- |
| O=C1[C@H]2Cc3c([nH]c4ccccc34)[C@@H](c3ccc4c(c3)OCO4)N2C(=O)CN1CCO [Example 10] | 5 |  |  |
| COc1ccc([C@@H]2c3[nH]c4ccccc4c3C[C@@H]3C(=O)N(CCN(C)C)CC(=O)N23)cc1 [Example 9] | 70 |  |  |
| COc1ccc([C@@H]2c3[nH]c4ccccc4c3C[C@@H]3C(=O)N(CCCN(C)C)CC(=O)N23)cc1 [Example 11] | 650 |  |  |
| NC(=O)CN1CC(=O)N2[C@H](c3ccc4c(c3)OCO4)c3[nH]c4ccccc4c3C[C@@H]2C1=O [Example 20] | 10 |  |  |
| O=C1[C@H]2Cc3c([nH]c4ccccc34)[C@@H](c3ccc4c(c3)OCO4)N2C(=O)CN1O [Example 2, (6R,12aR)-6-Benzo[1,3]dioxo-5-yl-2-hydroxy-2,3,6,7,12,12a-hexahydropyrazino[1′,2′:1,6]-pyrido[3,4-b]indole-1,4-dione] |  | 276 to 283 °C (dec.) | 7.5 |
| COc1ccc([C@@H]2c3[nH]c4ccccc4c3C[C@@H]3C(=O)N(CCCN4CCN(C)CC4)CC(=O)N23)cc1 [Example 12] | 100 |  |  |

Continued, values first:

| IC50 [1] [nM] | melting point | IC50 (human recombinant PDE5) [nM] | SMILES |
| --- | --- | --- | --- |
| 4 |  |  | COC(=O)CN1CC(=O)N2[C@H](c3ccc4c(c3)OCO4)c3[nH]c4ccccc4c3C[C@@H]2C1=O [Example 19] |
|  |  | 4.3 | O=C(O)c1ccc(CN2CC(=O)N3[C@H](c4ccc5c(c4)OCO5)c4[nH]c5ccccc5c4C[C@@H]3C2=O)cc1 [Example 47] |
|  |  | 5.4 | O=C1CCCN1CCCN1CC(=O)N2[C@H](c3ccc4c(c3)OCO4)c3[nH]c4ccccc4c3C[C@@H]2C1=O [Example 27] |
